Measurements reported in ChEMBL document CHEMBL3885881, “DrugMatrix”.

Species on record: Rattus norvegicus
Assay: DrugMatrix - Regimen: Daily Repeat
Assay type: toxicity, organism-based, Sprague-Dawley
Design: regimen Daily Repeat, gender Male, age 6-8 weeks
Conditions: in vivo, po, route oral GAVAGE, […]; for ABSOLUTE BASOPHIL / ABSOLUTE EOSINOPHIL / ABSOLUTE LYMPHOCYTE / ABSOLUTE MONOCYTE / ABSOLUTE SEGMENTED NEUTROPHIL / BASOPHIL / EOSINOPHIL / ERYTHROCYTE COUNT / HEMATOCRIT / HEMOGLOBIN / LEUKOCYTE COUNT / LYMPHOCYTE / MEAN CORPUSCULAR HEMOGLOBIN / MEAN CORPUSCULAR HEMOGLOBIN CONCENTRATION / MEAN CORPUSCULAR VOLUME / MONOCYTE / NEUTROPHIL / NUCLEATED RED BLOOD CELLS / PLATELET COUNT: tissue Blood; for ALANINE AMINOTRANSFERASE / ALBUMIN / ALKALINE PHOSPHATASE / ASPARTATE AMINOTRANSFERASE / BLOOD UREA NITROGEN / CARBON DIOXIDE / CHLORIDE / CHOLESTEROL / CREATINE PHOSPHOKINASE / CREATININE / GLUCOSE / LACTATE DEHYDROGENASE / LIPASE / PHOSPHORUS / POTASSIUM / SODIUM / TOTAL BILIRUBIN / TOTAL PROTEIN / URIC ACID: tissue Plasma
[1] = 25 mg/kg, 120 h, dose level Low, time 5 day
[2] = 800 mg/kg, 72 h, dose level High, time 3 day
[3] = 800 mg/kg, 120 h, dose level High, time 5 day

SMILES: CC(C)(C)NC(=O)[C@H]1CC[C@H]2[C@@H]3CC[C@H]4NC(=O)C=C[C@]4(C)[C@H]3CC[C@]12C [FINASTERIDE]
- ABSOLUTE BASOPHIL [1]: 0 CELLS/uL
- ABSOLUTE EOSINOPHIL [1]: 34.67 CELLS/uL
- ABSOLUTE LYMPHOCYTE [1]: 7140 CELLS/uL
- ABSOLUTE MONOCYTE [1]: 141.33 CELLS/uL
- ABSOLUTE SEGMENTED NEUTROPHIL [1]: 817.33 CELLS/uL
- BASOPHIL [1]: 0%
- EOSINOPHIL [1]: 0.67%
- ERYTHROCYTE COUNT [1]: 5.11 x10E6/uL
- HEMATOCRIT [1]: 33.07%
- HEMOGLOBIN [1]: 13.03 G/DL
- LEUKOCYTE COUNT [1]: 8.13 x10E3/uL
- LYMPHOCYTE [1]: 87.67%
- MEAN CORPUSCULAR HEMOGLOBIN [1]: 25.53 pg
- MEAN CORPUSCULAR HEMOGLOBIN CONCENTRATION [1]: 39.4 G/DL
- MEAN CORPUSCULAR VOLUME [1]: 64.77 fL
- MONOCYTE [1]: 1.67%
- NEUTROPHIL [1]: 10%
- NUCLEATED RED BLOOD CELLS [1]: 0 /100WBC
- PLATELET COUNT [1]: 1248.33 x10E3/uL
- ALANINE AMINOTRANSFERASE [1]: 61 u/L
- ALBUMIN [1]: 4.23 G/DL
- ALKALINE PHOSPHATASE [1]: 355.67 u/L
- ASPARTATE AMINOTRANSFERASE [1]: 74.67 u/L
- BLOOD UREA NITROGEN [1]: 11.67 mg/dL
- CARBON DIOXIDE [1]: 32.33 mmol/L
- CHLORIDE [1]: 103 MEQ/L
- CHOLESTEROL [1]: 87.33 mg/dL
- CREATINE PHOSPHOKINASE [1]: 247.33 u/L
- CREATININE [1]: 0.43 mg/dL
- GLUCOSE [1]: 152 mg/dL
- LACTATE DEHYDROGENASE [1]: 82.33 u/L
- LIPASE [1]: 11 u/L
- PHOSPHORUS [1]: 11.7 mg/dL
- POTASSIUM [1]: 6.04 MEQ/L
- SODIUM [1]: 146.03 MEQ/L
- TOTAL BILIRUBIN [1]: 0.17 mg/dL
- TOTAL PROTEIN [1]: 5.93 G/DL
- URIC ACID [1]: 0.8 mg/dL
- ABSOLUTE BASOPHIL [2]: 0 CELLS/uL
- ABSOLUTE EOSINOPHIL [2]: 0 CELLS/uL
- ABSOLUTE LYMPHOCYTE [2]: 7333 CELLS/uL
- ABSOLUTE MONOCYTE [2]: 111.33 CELLS/uL
- ABSOLUTE SEGMENTED NEUTROPHIL [2]: 889 CELLS/uL
- BASOPHIL [2]: 0%
- EOSINOPHIL [2]: 0%
- ERYTHROCYTE COUNT [2]: 5.15 x10E6/uL
- HEMATOCRIT [2]: 31.93%
- HEMOGLOBIN [2]: 12.77 G/DL
- LEUKOCYTE COUNT [2]: 8.33 x10E3/uL
- LYMPHOCYTE [2]: 88.33%
- MEAN CORPUSCULAR HEMOGLOBIN [2]: 24.83 pg
- MEAN CORPUSCULAR HEMOGLOBIN CONCENTRATION [2]: 40 G/DL
- MEAN CORPUSCULAR VOLUME [2]: 62.17 fL
- MONOCYTE [2]: 1.33%
- NEUTROPHIL [2]: 10.33%
- NUCLEATED RED BLOOD CELLS [2]: 0 /100WBC
- PLATELET COUNT [2]: 974.67 x10E3/uL
- ALANINE AMINOTRANSFERASE [2]: 103.67 u/L
- ALBUMIN [2]: 3.93 G/DL
- ALKALINE PHOSPHATASE [2]: 409.67 u/L
- ASPARTATE AMINOTRANSFERASE [2]: 102.67 u/L
- BLOOD UREA NITROGEN [2]: 11 mg/dL
- CARBON DIOXIDE [2]: 26 mmol/L
- CHLORIDE [2]: 102.33 MEQ/L
- CHOLESTEROL [2]: 70.33 mg/dL
- CREATINE PHOSPHOKINASE [2]: 348.33 u/L
- CREATININE [2]: 0.1 mg/dL
- GLUCOSE [2]: 149 mg/dL
- LACTATE DEHYDROGENASE [2]: 104.67 u/L
- LIPASE [2]: 10.67 u/L
- PHOSPHORUS [2]: 11.3 mg/dL
- POTASSIUM [2]: 5.02 MEQ/L
- SODIUM [2]: 144 MEQ/L
- TOTAL BILIRUBIN [2]: 0.1 mg/dL
- TOTAL PROTEIN [2]: 5.37 G/DL
- URIC ACID [2]: 0.87 mg/dL
- ABSOLUTE BASOPHIL [3]: 0 CELLS/uL
- ABSOLUTE EOSINOPHIL [3]: 85.67 CELLS/uL
- ABSOLUTE LYMPHOCYTE [3]: 6528 CELLS/uL
- ABSOLUTE MONOCYTE [3]: 164.33 CELLS/uL
- ABSOLUTE SEGMENTED NEUTROPHIL [3]: 922 CELLS/uL
- BASOPHIL [3]: 0%
- EOSINOPHIL [3]: 1%
- ERYTHROCYTE COUNT [3]: 5.25 x10E6/uL
- HEMATOCRIT [3]: 33.4%
- HEMOGLOBIN [3]: 12.97 G/DL
- LEUKOCYTE COUNT [3]: 7.7 x10E3/uL
- LYMPHOCYTE [3]: 85%
- MEAN CORPUSCULAR HEMOGLOBIN [3]: 24.7 pg
- MEAN CORPUSCULAR HEMOGLOBIN CONCENTRATION [3]: 38.83 G/DL
- MEAN CORPUSCULAR VOLUME [3]: 63.67 fL
- MONOCYTE [3]: 2%
- NEUTROPHIL [3]: 12%
- NUCLEATED RED BLOOD CELLS [3]: 0 /100WBC
- PLATELET COUNT [3]: 1238.33 x10E3/uL
- ALANINE AMINOTRANSFERASE [3]: 55.33 u/L
- ALBUMIN [3]: 4.33 G/DL
- ALKALINE PHOSPHATASE [3]: 297 u/L
- ASPARTATE AMINOTRANSFERASE [3]: 76.67 u/L
- BLOOD UREA NITROGEN [3]: 13.67 mg/dL
- CARBON DIOXIDE [3]: 32.33 mmol/L
- CHLORIDE [3]: 103 MEQ/L
- CHOLESTEROL [3]: 66.33 mg/dL
- CREATINE PHOSPHOKINASE [3]: 232.33 u/L
- CREATININE [3]: 0.12 mg/dL
- GLUCOSE [3]: 157.67 mg/dL
- LACTATE DEHYDROGENASE [3]: 64.33 u/L
- LIPASE [3]: 10.33 u/L
- PHOSPHORUS [3]: 11.1 mg/dL
- POTASSIUM [3]: 5.99 MEQ/L
- SODIUM [3]: 147.03 MEQ/L
- TOTAL BILIRUBIN [3]: 0.1 mg/dL
- TOTAL PROTEIN [3]: 6.07 G/DL
- URIC ACID [3]: 0.5 mg/dL
